Measurements as given in patent US9113629B2, “4-amino-6-(4-substituted-phenyl)-picolinates and 6-amino-2-(4-substituted-phenyl)-pyrimidine-4-carboxylates and their use as herbicides” (DOW AGROSCIENCES LLC, priority 2013, dated 2015).

tested on: HORSS: barley, including spring and winter (Hordeum vulgare); assay: Post-emergent Test III, herbicidal activity in wheat and barley; type: in vivo; settings: Hordeum vulgare, post-emergence, 504 h; 35 g ai/ha; 21 days after application; read-out: Visual Gorowth Reduction (%) 21 days After Application HORSS
Method in brief: (§1)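 Plants at the second to third true-leaf stage, grown in a greenhouse at about 18/17 °C with a 14 h photoperiod, were sprayed post-emergence at 187 L/ha with the high rate and ½× to 1/16× serial dilutions in an acetone/DMSO/crop-oil/surfactant carrier. Injury was rated visually at 21 d on a 0–100% scale, and GR20–GR90 were derived by probit analysis.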

Compound | pest or weed control at 35 g/ha
Nc1c(F)c(-c2ccc(Br)c(F)c2)nc(C(=O)O)c1Cl [Compound 21] | 85 to 94%
Nc1cc(-c2ccc(I)c(F)c2F)nc(C(=O)O)c1Cl [Compound 38] | 85 to 94%

same assay, conditions: Hordeum vulgare, post-emergence, 504 h; 70 g ai/ha; 21 days after application; read-out: Visual Gorowth Reduction (%) 21 days After Application HORSS

Compound | pest or weed control at 70 g/ha
Nc1c(F)c(-c2ccc(Br)c(F)c2)nc(C(=O)O)c1Cl [Compound 21] | 95 to 100%
Nc1cc(-c2ccc(I)c(F)c2F)nc(C(=O)O)c1Cl [Compound 38] | 85 to 94%

same assay, conditions: probit analysis; dose for 20 percent growth reduction (crop); 21 days after application

Compound | GR20 HORSS
Nc1c(F)c(-c2ccc(Br)c(F)c2)nc(C(=O)O)c1Cl [Compound 21] | 1 g ai/ha
Nc1cc(-c2ccc(I)c(F)c2F)nc(C(=O)O)c1Cl [Compound 38] | 1 g ai/ha

tested on: KCHSC: kochia (Kochia scoparia); assay: as above; type: in vivo; settings: Bassia scoparia, post-emergence, 504 h; 35 g ai/ha; 21 days after application; read-out: Visual Gorowth Reduction (%) 21 days After Application KCHSC
Method in brief: as §1

Compound | pest or weed control at 35 g/ha
Nc1c(F)c(-c2ccc(Br)c(F)c2)nc(C(=O)O)c1Cl [Compound 21] | 95 to 100%
Nc1cc(-c2ccc(I)c(F)c2F)nc(C(=O)O)c1Cl [Compound 38] | 85 to 94%

same assay, conditions: Bassia scoparia, post-emergence, 504 h; 70 g ai/ha; 21 days after application; read-out: Visual Gorowth Reduction (%) 21 days After Application KCHSC

Compound | pest or weed control at 70 g/ha
Nc1c(F)c(-c2ccc(Br)c(F)c2)nc(C(=O)O)c1Cl [Compound 21] | 95 to 100%
Nc1cc(-c2ccc(I)c(F)c2F)nc(C(=O)O)c1Cl [Compound 38] | 85 to 94%

same assay, conditions: probit analysis; dose for 50 percent growth reduction; 21 days after application

Compound | GR50 KCHSC
Nc1c(F)c(-c2ccc(Br)c(F)c2)nc(C(=O)O)c1Cl [Compound 21] | 1 g ai/ha
Nc1cc(-c2ccc(I)c(F)c2F)nc(C(=O)O)c1Cl [Compound 38] | 1 g ai/ha

same assay, conditions: probit analysis; dose for 80 percent growth reduction; 21 days after application

Compound | GR80 KCHSC
Nc1c(F)c(-c2ccc(Br)c(F)c2)nc(C(=O)O)c1Cl [Compound 21] | 1 g ai/ha
Nc1cc(-c2ccc(I)c(F)c2F)nc(C(=O)O)c1Cl [Compound 38] | 24 g ai/ha

tested on: MATSS: scented mayweed (Matricaria chamomilla), pineappleweed (Matricaria matricarioides); assay: as above; type: in vivo; settings: Matricaria chamomilla, post-emergence, 504 h; 35 g ai/ha; 21 days after application; read-out: Visual Gorowth Reduction (%) 21 days After Application MATSS
Method in brief: as §1

Compound | pest or weed control at 35 g/ha
Nc1c(F)c(-c2ccc(Br)c(F)c2)nc(C(=O)O)c1Cl [Compound 21] | 85 to 94%
Nc1cc(-c2ccc(I)c(F)c2F)nc(C(=O)O)c1Cl [Compound 38] | 60 to 74%

same assay, conditions: Matricaria chamomilla, post-emergence, 504 h; 70 g ai/ha; 21 days after application; read-out: Visual Gorowth Reduction (%) 21 days After Application MATSS

Compound | pest or weed control at 70 g/ha
Nc1c(F)c(-c2ccc(Br)c(F)c2)nc(C(=O)O)c1Cl [Compound 21] | 85 to 94%
Nc1cc(-c2ccc(I)c(F)c2F)nc(C(=O)O)c1Cl [Compound 38] | 85 to 94%

same assay, conditions: probit analysis; dose for 50 percent growth reduction; 21 days after application

Compound | GR50 MATSS
Nc1c(F)c(-c2ccc(Br)c(F)c2)nc(C(=O)O)c1Cl [Compound 21] | 5 g ai/ha
Nc1cc(-c2ccc(I)c(F)c2F)nc(C(=O)O)c1Cl [Compound 38] | 21 g ai/ha

same assay, conditions: probit analysis; dose for 80 percent growth reduction; 21 days after application

Compound | GR80 MATSS
Nc1c(F)c(-c2ccc(Br)c(F)c2)nc(C(=O)O)c1Cl [Compound 21] | 31 g ai/ha
Nc1cc(-c2ccc(I)c(F)c2F)nc(C(=O)O)c1Cl [Compound 38] | 56 g ai/ha

tested on: SASKR: Russian thistle (Salsola iberica); assay: as above; type: in vivo; settings: Salsola tragus, post-emergence, 504 h; 35 g ai/ha; 21 days after application; read-out: Visual Gorowth Reduction (%) 21 days After Application SASKR
Method in brief: as §1

Compound | pest or weed control at 35 g/ha
Nc1c(F)c(-c2ccc(Br)c(F)c2)nc(C(=O)O)c1Cl [Compound 21] | 75 to 84%
Nc1cc(-c2ccc(I)c(F)c2F)nc(C(=O)O)c1Cl [Compound 38] | 60 to 74%

same assay, conditions: Salsola tragus, post-emergence, 504 h; 70 g ai/ha; 21 days after application; read-out: Visual Gorowth Reduction (%) 21 days After Application SASKR

Compound | pest or weed control at 70 g/ha
Nc1c(F)c(-c2ccc(Br)c(F)c2)nc(C(=O)O)c1Cl [Compound 21] | 85 to 94%
Nc1cc(-c2ccc(I)c(F)c2F)nc(C(=O)O)c1Cl [Compound 38] | 60 to 74%

same assay, conditions: probit analysis; dose for 50 percent growth reduction; 21 days after application

Compound | GR50 SASKR
Nc1c(F)c(-c2ccc(Br)c(F)c2)nc(C(=O)O)c1Cl [Compound 21] | 1 g ai/ha
Nc1cc(-c2ccc(I)c(F)c2F)nc(C(=O)O)c1Cl [Compound 38] | 17 g ai/ha

same assay, conditions: probit analysis; dose for 80 percent growth reduction; 21 days after application

Compound | GR80 SASKR
Nc1c(F)c(-c2ccc(Br)c(F)c2)nc(C(=O)O)c1Cl [Compound 21] | 25 g ai/ha
Nc1cc(-c2ccc(I)c(F)c2F)nc(C(=O)O)c1Cl [Compound 38] | 68 g ai/ha

tested on: TRZSS: wheat, including spring and winter (Triticum aestivum); assay: as above; type: in vivo; settings: Triticum aestivum, post-emergence, 504 h; 35 g ai/ha; 21 days after application; read-out: Visual Gorowth Reduction (%) 21 days After Application TRZSS
Method in brief: as §1

Compound | pest or weed control at 35 g/ha
Nc1c(F)c(-c2ccc(Br)c(F)c2)nc(C(=O)O)c1Cl [Compound 21] | 75 to 84%
Nc1cc(-c2ccc(I)c(F)c2F)nc(C(=O)O)c1Cl [Compound 38] | 85 to 94%

same assay, conditions: Triticum aestivum, post-emergence, 504 h; 70 g ai/ha; 21 days after application; read-out: Visual Gorowth Reduction (%) 21 days After Application TRZSS

Compound | pest or weed control at 70 g/ha
Nc1c(F)c(-c2ccc(Br)c(F)c2)nc(C(=O)O)c1Cl [Compound 21] | 85 to 94%
Nc1cc(-c2ccc(I)c(F)c2F)nc(C(=O)O)c1Cl [Compound 38] | 85 to 94%

same assay, conditions: probit analysis; dose for 20 percent growth reduction (crop); 21 days after application

Compound | GR20 TRZSS
Nc1c(F)c(-c2ccc(Br)c(F)c2)nc(C(=O)O)c1Cl [Compound 21] | 1 g ai/ha
Nc1cc(-c2ccc(I)c(F)c2F)nc(C(=O)O)c1Cl [Compound 38] | 1 g ai/ha

tested on: VERPE: bird's-eye speedwell (veronica persica); assay: as above; type: in vivo; settings: Veronica persica, post-emergence, 504 h; 35 g ai/ha; 21 days after application; read-out: Visual Gorowth Reduction (%) 21 days After Application VERPE
Method in brief: as §1

Compound | pest or weed control at 35 g/ha
Nc1c(F)c(-c2ccc(Br)c(F)c2)nc(C(=O)O)c1Cl [Compound 21] | 30 to 44%
Nc1cc(-c2ccc(I)c(F)c2F)nc(C(=O)O)c1Cl [Compound 38] | 30 to 44%

same assay, conditions: Veronica persica, post-emergence, 504 h; 70 g ai/ha; 21 days after application; read-out: Visual Gorowth Reduction (%) 21 days After Application VERPE

Compound | pest or weed control at 70 g/ha
Nc1c(F)c(-c2ccc(Br)c(F)c2)nc(C(=O)O)c1Cl [Compound 21] | 0 to 29%
Nc1cc(-c2ccc(I)c(F)c2F)nc(C(=O)O)c1Cl [Compound 38] | 60 to 74%

same assay, conditions: probit analysis; dose for 50 percent growth reduction; 21 days after application

Compound | GR50 VERPE
Nc1c(F)c(-c2ccc(Br)c(F)c2)nc(C(=O)O)c1Cl [Compound 21] | 130 g ai/ha
Nc1cc(-c2ccc(I)c(F)c2F)nc(C(=O)O)c1Cl [Compound 38] | 42 g ai/ha

same assay, conditions: probit analysis; dose for 80 percent growth reduction; 21 days after application

Compound | GR80 VERPE
Nc1c(F)c(-c2ccc(Br)c(F)c2)nc(C(=O)O)c1Cl [Compound 21] | >140 g ai/ha
Nc1cc(-c2ccc(I)c(F)c2F)nc(C(=O)O)c1Cl [Compound 38] | 112 g ai/ha

tested on: VIOSS: wild pansy (Viola tricolor), field violet (Viola arvensis); assay: as above; type: in vivo; settings: Viola tricolor, post-emergence, 504 h; 35 g ai/ha; 21 days after application; read-out: Visual Gorowth Reduction (%) 21 days After Application VIOSS
Method in brief: as §1

Compound | pest or weed control at 35 g/ha
Nc1c(F)c(-c2ccc(Br)c(F)c2)nc(C(=O)O)c1Cl [Compound 21] | 95 to 100%
Nc1cc(-c2ccc(I)c(F)c2F)nc(C(=O)O)c1Cl [Compound 38] | 95 to 100%

same assay, conditions: Viola tricolor, post-emergence, 504 h; 70 g ai/ha; 21 days after application; read-out: Visual Gorowth Reduction (%) 21 days After Application VIOSS

Compound | pest or weed control at 70 g/ha
Nc1c(F)c(-c2ccc(Br)c(F)c2)nc(C(=O)O)c1Cl [Compound 21] | 95 to 100%
Nc1cc(-c2ccc(I)c(F)c2F)nc(C(=O)O)c1Cl [Compound 38] | 95 to 100%

same assay, conditions: probit analysis; dose for 50 percent growth reduction; 21 days after application

Compound | GR50 VIOSS
Nc1c(F)c(-c2ccc(Br)c(F)c2)nc(C(=O)O)c1Cl [Compound 21] | 4 g ai/ha
Nc1cc(-c2ccc(I)c(F)c2F)nc(C(=O)O)c1Cl [Compound 38] | 13 g ai/ha

same assay, conditions: probit analysis; dose for 80 percent growth reduction; 21 days after application

Compound | GR80 VIOSS
Nc1c(F)c(-c2ccc(Br)c(F)c2)nc(C(=O)O)c1Cl [Compound 21] | 6 g ai/ha
Nc1cc(-c2ccc(I)c(F)c2F)nc(C(=O)O)c1Cl [Compound 38] | 26 g ai/ha
